Data taken from ChEMBL document CHEMBL1150639, “Antiplasmodial compounds from Cochlospermum tinctorium” (J Nat Prod, 2002).

System: Plasmodium falciparum
Assay: Antiplasmodial activity against chloroquine-sensitive Plasmodium falciparum 3D7
Type: functional, organism-based

Structure (SMILES)	IC50 [µM]
CCCCCCCCCCCC(=O)CCO	68
C=C(C)[C@@H]1CC[C@]2(C(=O)O)CC[C@]3(C)[C@H](CC[C@@H]4[C@@]5(C)C[C@@H](O)[C@H](O)C(C)(C)[C@@H]5CC[C@]43C)[C@@H]12 [ALPHITOLIC ACID]	35
